Assay results as given in patent US20190282673A1, “STAPHTAME ACTIVITY ON BIOFILMS” (priority 2016, published 2019).
Where “and” joins values, the source holds several entries; their conditions need not be identical. Equal values may be shown once. Read-outs that look alike come from different tables or passages of the source.

How the values were obtained:
[1] = test system: S. epidermidis strain B9470; experiment: Generation and confirmation of antibiotic persisters (CFU over time); format: cell-based, Staphylococcus epidermidis; details: for CFU/mL, generation of persisters: Vancomycin 50X, Daptomycin 10X MIC; for CFU/mL, confirmation of persisters (regrown, re-exposed): head prints Vancomycin 100X, Daptomycin 50×
Method: Persisters of S. aureus BK18 and B9377 and S. epidermidis strain B9470 were generated as per protocol described by Lechner, et al (Staphylococcus aureus persisters tolerant to bactericidal antibiotics. Lechner, et al. (2012) J Mol Microbiol Biotechnol; 22(4):235-44). Briefly, colonies were suspended in LB broth and allowed to grow at 37° C., 200 rpm for ˜2 hours. The cultures were pelleted, resuspended in MHB and OD600 was adjusted to 0.5 to 1.0 OD (˜2 to 5×10^8 CFU/mL). […] The test tubes were incubated at 37° C., 200 rpm, and 250 μL was sampled out at 4, 8, and 24 hr time points. This aliquot was pelleted, washed in saline and resuspended in equal volume of saline, diluted and plated on LB agar. Rapid decrease in CFUs, followed by rather stable values for up to 24 hrs, indicated the presence of Daptomycin/Vancomycin tolerant persisters.
After sampling for P128 and antibiotic activity, the rest of the sample was pelleted, washed in saline and resuspended into fresh media (LB). Allowed to grow at 37° C., 200 rpm until it reaches 1 OD and then the same steps followed as done for generation of persisters. A biphasic growth curve similar to that obtained during generation of persisters would indicate the tolerance to be phenotypic and not genotypic.

[2] = test system: MRSA MW2 biofilm on catheter; experiment: In vivo biofilm on catheter implanted subcutaneously in neutropenic mice
Method: Eight-nine week old female BALB/c mice 25 g were rendered neutropenic with cyclophosphamide and were operated under ketamine-xylazine anesthesia. A 1-cm incision was made in the dorsal neck surface by aseptic technique and subcutaneous pouch was created. Catheter segments of 1 cm length pre-incubated with MRSA MW2 suspension (6×10^3 CFUs/mL) for 4 hrs, were placed in the subcutaneous space and the wounds were closed with suture thereafter. As uninfected control, one group of mice were surgically operated and a sterile catheter segment was placed in the cavity. At 24 hours post-catheter implantation, mice were treated with P128 (800 μg per animal, subcutaneously) or with the placebo (saline). Treatments were given thrice a day at 2 hr intervals for three days and 1 hr after the last treatment, the catheters were removed, biofilms were harvested and CFUs recovered were plated on culture media and enumerated. Catheters from a subset of animals were stained with 0.1% safranin, (which stains the bacteria) for 5 min.
For evaluation of synergy with daptomycin, mouse model of biofilm described above was used with few modifications. Eight-nine week old female BALB/c mice 25 g were rendered neutropenic with cyclophosphamide and were operated under ketamine-xylazine anesthesia. A 1-cm incision was made in the dorsal neck surface by aseptic technique and subcutaneous pouch was created. Catheter segments measuring 1 cm were placed in the subcutaneous space, and the wounds closed with suture. At 72 hours post-implantation. MRSA MW2 bacterial inoculum (2.1×10^7 CFU per animal) was injected subcutaneously onto the catheter. At 24 hrs post-challenge, animals were treated with either P128 (800 μg per animal, subcutaneous), or daptomycin (12.5 mg/kg, subcutaneous) or a combination of both. Daptomycin was given once every day for three days whereas P128 was administered thrice a day at 2 hr interval for three days. 1 hr after the last treatment, animals were euthanized and catheters were collected and recovered CFUs were enumerated.
Biofilms were also visualized by staining the catheters with 0.1% safranin.

S. epidermidis = experiment: MIC and checkerboard synergy (broth microdilution) on planktonic cells; format: cell-based, Staphylococcus epidermidis; details: for MIC: Staphylococcus epidermidis
Method: Bacterial cultures at a final cell number of 5×10^5 CFU/mL was added to wells of 96-well microtiter plates (precoated with 0.5% BSA), containing two-fold dilutions of P128 and the second drug in cation adjusted Mueller Hinton Broth (CAMHB). The plates were incubated at 37° C. for 24 h and the individual MICs and the combination MICs were read. The fractional inhibitory concentration index (FICI) was determined using the following equation: FICI=(MIC of drug A in the combination/MIC of drug A alone)+(MIC of drug B in the combination/MIC of drug B alone). The combination was considered to be synergistic when the FICI was ≤0.5; additive when FICI was 0.5-1.0; indifferent when FICI was 1-4 and antagonistic when FICI≥4.
S. epidermidis culture at a final cell number of 5×10^5 CFU/mL was added to wells of 96-well microtiter plates (precoated with 0.5% BSA), containing two-fold dilutions of P128 and either Daptomycin or Oxacillin in cation adjusted Mueller Hinton Broth (CAMHB). CAMHB was supplemented with 50 µg/mL Ca^++ for daptomycin assay. The plates were incubated at 37° C. for 24 h and the individual MICs and the combination MICs were read. The fractional inhibitory concentration index (FICI) was determined using the following equation: FICI=(MIC of drug A in the combination/MIC of drug A alone)+(MIC of drug B in the combination/MIC of drug B alone). The combination was considered to be synergistic when the FICI was ≤0.5; additive when FICI was between 0.5-1.0; indifferent when FICI was between 1-4 and antagonistic when FICI was ≥4. The experiments were performed in triplicate and repeated twice.

[3] = test system: S. epidermidis B9470 biofilms on catheters; experiment: Preformed biofilms on catheters, safranin staining and SEM; format: cell-based, Staphylococcus epidermidis; details: 18 hrs; P128 8 μg/mL (1×MIC); vancomycin 30 μg/mL (30×MIC)
Method: In order to simulate the in vivo conditions for biofilm formation in device associated infections, S. epidermidis B9470 was allowed to form biofilms on the surface of catheters. An overnight-grown culture was diluted 1:40 in TSB containing 4% sodium chloride. Catheter (JMS Infusion set) pieces of 1-2 cm size were cut, slit into two halves and added to the culture. The cultures with catheter pieces were incubated at 37° C. with shaking at 100 rpm for 42 h. Post incubation, the catheters were removed and rinsed twice in PBS to remove the adhering planktonic cells. The biofilms on catheters were challenged with 8 μg/mL of P128 or 30 μg/mL of vancomycin by transferring the catheter pieces into tubes containing the drugs. The tubes were incubated at 37° C. under static conditions for 18 hrs. The catheters were then removed from the tubes, rinsed once in PBS, and immersed in 0.1% safranin [a dye that stains cell wall of bacteria] for 5 min. The stained catheters were washed once in PBS and allowed to dry. After drying, samples were fixed on aluminum stubs with double sided carbon adhesive tape, coated with 5-7 nm thickness gold using a sputter-coating system (Quorum Technologies; Q150T) and examined by SEM (Carl Zeiss. Neon 40) for the presence of biofilm structures.

S. aureus USA300 = experiment: Mouse model of S. aureus with mucin-enhanced virulence, survival; format: in vivo, BALB/c mice; details: S. aureus USA300 10^9 CFU ip, P128 […] ip, Vancomycin 27.5 mg/kg sc 2 doses, or both
Method: Eight to nine weeks old female BALB/c mice were challenged intraperitoneally with 10^9 CFU of S. aureus USA300. At 2 hours post-infection, animals were treated with either P128 at 2.5 mg/kg intraperitoneally, or vancomycin at 27.5 mg/kg subcutaneously, or combination of both. Groups treated with only vancomycin or combination of P128 and vancomycin were administered with a second dose of vancomycin at 12 hours after the first treatment. At 72 hours post-infection, P128 and vancomycin yielded 56 and 44% survival, respectively.

[4] = test system: S. aureus small colony variants (hemB and menD mutants); experiment: Lawn inhibition assay on small colony variants; format: cell-based, Staphylococcus aureus
Method: Two S. aureus small colony variants viz., hemB mutant and menD mutants were characterized for SCV phenotype and auxotrophy for hemin and menadione. Both the isolates were revived on LB agar with and without Erythromycin (5 μg/mL) and Blood agar medium and incubated at 37° C. for 48 hr.
P128 was tested on both the mutants by lawn inhibition assay and the SCV's were susceptible to P128.

[5] = Table VB2: Daptomycin 12.5 mg/kg sc 1 dose per day for 3 days, P128 800 μg per dose sc 3 doses/day for 3 days, or both
[6] = P128 800 μg per animal sc, thrice a day for three days
[7] = Table VB1: pre-colonised catheter, P128 800 μg per dose sc, 3 doses/day for 3 days

Molecule | CFU/mL, generation of persisters ([1]; B9470, 0 h) | CFU/mL, confirmation of persisters (regrown, re-exposed) ([1]; B9470, 0 h) | CFU/mL, generation of persisters ([1]; B9470, 2 h) | CFU/mL, confirmation of persisters (regrown, re-exposed) ([1]; B9470, 2 h) | CFU/mL, generation of persisters ([1]; B9470, 4 h) | CFU/mL, confirmation of persisters (regrown, re-exposed) ([1]; B9470, 4 h) | CFU/mL, generation of persisters ([1]; B9470, 8 h) | CFU/mL, confirmation of persisters (regrown, re-exposed) ([1]; B9470, 8 h) | CFU/mL, generation of persisters ([1]; B9470, 24 h) | CFU/mL, confirmation of persisters (regrown, re-exposed) ([1]; B9470, 24 h) | CFU recovered from catheter biofilm, individual animals [2, 5] | Effect on catheter biofilm (safranin/SEM) [3] | Survival at 72 h post infection (S. aureus USA300) [%] | also measured
CCCCCCCCCC(=O)N[C@@H](Cc1c[nH]c2ccccc12)C(=O)N[C@H](CC(N)=O)C(=O)N[C@@H](CC(=O)O)C(=O)N[C@@H]1C(=O)NCC(=O)N[C@@H](CCCN)C(=O)N[C@@H](CC(=O)O)C(=O)N[C@H](C)C(=O)N[C@@H](CC(=O)O)C(=O)NCC(=O)N[C@H](CO)C(=O)N[C@@H]([C@H](C)CC(=O)O)C(=O)N[C@@H](CC(=O)c2ccccc2N)C(=O)O[C@@H]1C [Daptomycin, daptomycin] | 3.2 × 10^7 CFU/mL | 1 × 10^7 CFU/mL | 1 × 10^7 CFU/mL | 9 × 10^4 CFU/mL | 2.3 × 10^6 CFU/mL | 4 × 10^3 CFU/mL | 5 × 10^5 CFU/mL | 6 × 10^2 CFU/mL | 3 × 10^6 CFU/mL | 5 × 10^3 CFU/mL | 4.9 CFU (Log10)/ml and 2.6 CFU (Log10)/ml and 3.0 CFU (Log10)/ml and 2.7 CFU (Log10)/ml | – | – | MIC (S. epidermidis; ATCC12228, S. epidermidis ATCC 12228, read-out: MIC (drug alone)): 1 µg/mL; MIC (S. epidermidis; S. epidermidis B9467, read-out: MIC (drug alone)): 2 µg/mL; MIC (S. epidermidis; S. epidermidis B9468, read-out: MIC (drug alone)): 0.5 µg/mL; MIC (S. epidermidis; S. epidermidis B9471, read-out: MIC (drug alone)): 2 µg/mL; MIC (S. epidermidis; S. epidermidis B9472, read-out: MIC (drug alone)): 2 µg/mL; MIC (S. epidermidis; S. epidermidis strains of Tables 7 and 8, read-out: MIC over the strains): 0.5 to 2 µg/mL
CN[C@H](CC(C)C)C(=O)N[C@H]1C(=O)N[C@@H](CC(N)=O)C(=O)N[C@H]2C(=O)N[C@H]3C(=O)N[C@H](C(=O)N[C@H](C(=O)O)c4cc(O)cc(O)c4-c4cc3ccc4O)[C@H](O)c3ccc(c(Cl)c3)Oc3cc2cc(c3O[C@@H]2O[C@H](CO)[C@@H](O)[C@H](O)[C@H]2O[C@H]2C[C@](C)(N)[C@H](O)[C@H](C)O2)Oc2ccc(cc2Cl)[C@H]1O [Vancomycin, vancomycin] | 3.2 × 10^7 CFU/mL | 2 × 10^7 CFU/mL | 1 × 10^6 CFU/mL | 1 × 10^5 CFU/mL | 3 × 10^5 CFU/mL | 6 × 10^4 CFU/mL | 9 × 10^3 CFU/mL | 1.5 × 10^4 CFU/mL | 3 × 10^4 CFU/mL | 5 × 10^3 CFU/mL | – | minimal effect | 43 | Survival at 72 h post infection (S. aureus USA300; listed as vancomycin): 44%
P128: anti-staphylococcal chimeric protein: phage tail associated muralytic enzyme (TAME) cell wall-degrading region plus staphylococcus-specific binding region; SEQ ID NO: 1 (protein, P128 chimera) MSLDSLKKYNGKLPKHDPSFVQPGNRHYKYQCTWYAYNRRGQLGIPVPLWGDAADWIGGAKGAGYGVGRTPKQGACVIWQRGVQGGSPQYGHVAFVEKVLDGGKKIFISEHNYATPNGYGTRTIDMSSAIGKNAQFIYDKKLETPNTGWKTNKYGTLYKSESASFTPNTDIITRTTGPFRSMPQSGVLKAGQTIHYDEVMKQDGHVWVGYTGNSGQRIYLPVRTWNKSTNTLGVLWGTIK | – | – | – | – | – | – | – | – | – | – | 2.5 CFU (Log10)/ml and 2.0 CFU (Log10)/ml and 2.7 CFU (Log10)/ml | eradication of the biofilm | 56 | Lawn inhibition [4]: susceptible; Reduction in CFUs compared to the control group [2, 6]: greater than 1 log; Safranin staining of catheters [2, 6]: eradication of biofilm; Avg. CFU recovered from catheter biofilm [2, 7]: 2.8 CFU Log(10)/ml; CFU recovered from catheter biofilm, individual animals [2, 7]: 4.15 CFU (Log10)/ml and 3.12 CFU (Log10)/ml and 1.00 CFU (Log10)/ml and Nil; MIC (drug alone) (S. epidermidis; S. epidermidis ATCC 12228): 4 µg/mL; MIC (drug alone) (S. epidermidis; S. epidermidis B9467): 32 µg/mL; MIC (drug alone) (S. epidermidis; S. epidermidis B9468): 2 µg/mL; MIC (drug alone) (S. epidermidis; S. epidermidis B9470): 8 µg/mL; MIC (drug alone) (S. epidermidis; S. epidermidis B9472): 16 µg/mL and 8 µg/mL; MIC (drug alone) (S. epidermidis; S. epidermidis B9473): 16 µg/mL; MIC over the strains (S. epidermidis; S. epidermidis strains of Tables 7 and 8): 2 to 32 µg/mL
